# Literature values, collected in patent US20040038890A1, “Human voltage-gated potassium channel subunit” (priority 1998, published 2004).
# How the values were obtained:
# [1] = biological target: Kv2.1/rKv9.3 (Rattus norvegicus, UniProt O88759+P15387); settings: Kv2.1/rKv9.3 versus Kv2.1 alone, Xenopus oocytes
# [2] = system: potassium currents in rat pulmonary artery myocytes
# [3] = system: Kv2.1 and Kv2.1/rKv9.3 complexes; settings: Kv2.1 compared with Kv2.1/rKv9.3
# Kv2.1/rKv9.3, sequence (P15387 whole entry): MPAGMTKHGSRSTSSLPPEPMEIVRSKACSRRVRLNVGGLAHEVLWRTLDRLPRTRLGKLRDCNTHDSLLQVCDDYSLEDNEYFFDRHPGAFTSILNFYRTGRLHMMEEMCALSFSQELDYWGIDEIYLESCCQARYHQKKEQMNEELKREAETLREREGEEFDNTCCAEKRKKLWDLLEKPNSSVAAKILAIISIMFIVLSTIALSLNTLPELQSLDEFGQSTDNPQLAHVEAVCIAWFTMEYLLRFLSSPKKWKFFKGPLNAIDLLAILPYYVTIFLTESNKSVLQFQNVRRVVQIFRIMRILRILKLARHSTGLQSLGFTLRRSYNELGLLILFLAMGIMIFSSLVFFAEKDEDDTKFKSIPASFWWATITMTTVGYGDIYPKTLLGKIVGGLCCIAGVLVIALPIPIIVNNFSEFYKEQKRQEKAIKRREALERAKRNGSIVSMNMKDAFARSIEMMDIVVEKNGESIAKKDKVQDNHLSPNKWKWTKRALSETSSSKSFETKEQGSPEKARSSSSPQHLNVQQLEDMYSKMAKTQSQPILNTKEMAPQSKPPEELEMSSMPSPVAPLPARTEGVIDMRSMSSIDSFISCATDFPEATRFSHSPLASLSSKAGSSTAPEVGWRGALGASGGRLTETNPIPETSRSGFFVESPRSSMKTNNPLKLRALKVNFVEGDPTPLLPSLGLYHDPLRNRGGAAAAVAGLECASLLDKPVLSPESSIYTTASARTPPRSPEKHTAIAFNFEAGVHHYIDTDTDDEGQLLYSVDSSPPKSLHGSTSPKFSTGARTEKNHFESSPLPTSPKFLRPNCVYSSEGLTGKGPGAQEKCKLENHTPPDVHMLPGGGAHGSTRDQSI
# Kv2.1/rKv9.3, sequence (O88759 whole entry): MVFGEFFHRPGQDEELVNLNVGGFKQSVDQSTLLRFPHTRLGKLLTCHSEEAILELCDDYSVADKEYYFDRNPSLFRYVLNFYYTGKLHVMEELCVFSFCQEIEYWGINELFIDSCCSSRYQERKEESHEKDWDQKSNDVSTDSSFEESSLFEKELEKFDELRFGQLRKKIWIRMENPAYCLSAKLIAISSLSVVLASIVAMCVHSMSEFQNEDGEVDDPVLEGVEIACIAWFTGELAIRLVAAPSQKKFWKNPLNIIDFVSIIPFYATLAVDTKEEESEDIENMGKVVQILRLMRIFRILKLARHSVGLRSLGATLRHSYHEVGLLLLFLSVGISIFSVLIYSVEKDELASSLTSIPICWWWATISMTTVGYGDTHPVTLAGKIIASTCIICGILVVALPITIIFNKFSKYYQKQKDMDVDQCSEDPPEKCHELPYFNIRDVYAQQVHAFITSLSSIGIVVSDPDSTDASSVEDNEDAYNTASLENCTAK
Compound,decrease in sensitivity of Kv2.1 when co-expressed with rKv9.3 [1],effect on potassium currents [2],sensitivity of Kv2.1 and Kv2.1/rKv9.3 complexes [3]
"CC[N+](CC)(CC)CC.[Cl-] [TEA, tetraethylammonium chloride]",3 fold,,
aminorex fumarate,,inhibit potassium currents,
"CCN[C@@H](C)Cc1cccc(C(F)(F)F)c1 [DFF, dex-fenfluramine]",,inhibit potassium currents,similarly sensitive
